The text below walks through data of US8394774B2, “Pesticidal compositions” (Dow AgroSciences, LLC., priority 2009, dated 2013).

Structures are written as SMILES. Where two headings read alike, the source gives them in different places.

Test [1] deals with beet armyworm (BAW; Spodoptera exigua: Lepidoptera). Put plainly: 128-well diet tray assay on beet armyworm (BAW 50). The class given is in vivo. The conditions noted are these: 144 h, read-out: BAW 50. On the procedure: (§1) Bioassays on beet armyworm (BAW; Spodoptera exigua: Lepidoptera) were conducted using either a 96-well microtiter plate-based high throughput (HTS) bioassay or a 128-well diet tray assay. The HTS assay is based on a modification of Lewer et al. J. Nat. Prod. 2006, 69, 1506. BAW eggs were placed on top of artificial diet (100 μL) in each well of a 96-well microtiter plate. The diet was pretreated with test compounds (12 μg dissolved in 30 μL of DMSO-acetone-H2O mixture) layered on top of the diet using a liquid handling system and then allowed to dry for several hours. Infested plates were then covered with a layer of sterile cotton batting and the plate lid, and then held in the dark at 29° C. Mortality was recorded at 6 days post-treatment. Each plate had six replicates. The percent mortality was calculated from the average of the six replicates. In the case of the 128-well diet assay, three to five second instar BAW larvae were placed in each well (3 mL) of the diet tray that had been previously filled with 1 mL of artificial diet to which 50 ug/cm^2 of the test compound (dissolved in 50 μL of 90:10 acetone-water mixture) had been applied (to each of eight wells) and then allowed to dry. Trays were covered with a clear self-adhesive cover, and held at 25° C., 14:10 light-dark for six days. Percent mortality was recorded for the larvae in each well; activity in the eight wells was then averaged. In Table 4, under both the BAW HTS and BAW 50 headings, an “A” means that the compound was tested and at least 50 percent mortality was observed whereas, “B” means that either (1) the compound was tested and less than 50 percent mortality was observed or (2) the compound was not tested.

The test system is the same in test [2]. Put plainly: 96-well microtiter plate-based high throughput (HTS) bioassay on beet armyworm (BAW HTS). In kind it is in vivo. The conditions noted are these: 144 h, read-out: BAW HTS. How it is done: as §1
[3] abbreviates: percent mortality, 128-well diet assay, 50 ug/cm^2 of test compound on diet, second instar BAW larvae, six days, 25° C., average of eight wells.
The mark [4] stands for this setting: percent mortality, 96-well HTS, 12 μg test compound on diet, BAW eggs, 6 days post-treatment, 29° C., average of six replicates.

As for `CCO[C@@H]1[C@@H](OC)[C@H](C)O[C@@H](O/N=C/c2ccc(/C=C/c3ccc(OC(F)(F)F)cc3)cc2)[C@@H]1OC` [Compound 5, 4-[(E)-2-(4-Trifluoromethoxyphenyl)-vinyl]-benzaldehyde O-((2S,3R,4R,5S,6S)-4-ethoxy-3,5-dimethoxy-6-methyl-tetrahydropyran-2-yl)-oxime], the pest or weed control at 50 µg/cm2, 50 µg/cm2 in test [1] (setting [3]) is above 50%. Further, in test [2] (setting [4]), the pest or weed control at 12 µg/well, 12 µg/well is below 50%.

`CCO[C@@H]1[C@@H](OC)[C@H](C)O[C@@H](O/N=C/c2ccc(/C=C/c3ccc(C(F)(F)F)cc3)cc2)[C@@H]1OC` [Compound 2, 4-[(E)-2-(4-Trifluoromethylphenyl)-vinyl]-benzaldehyde O-((2S,3R,4R,5S,6S)-4-ethoxy-3,5-dimethoxy-6-methyl-tetrahydropyran-2-yl)-oxime]: in test [1] (setting [3]), the pest or weed control at 50 µg/cm2, 50 µg/cm2 was above 50%. Also, the pest or weed control at 12 µg/well, 12 µg/well in test [2] (setting [4]) was above 50%.

For the molecule `CCCO[C@@H]1[C@@H](OC)[C@H](C)O[C@@H](OC(=O)Nc2ccc(/C=C/c3ccc(OC(F)(F)C(F)(F)F)cc3)cc2)[C@@H]1OC` [Compound 18, {4-[(E)-2-(4-Pentafluoroethyloxyphenyl)-vinyl]-phenyl}-carbamic acid (2S,3R,4R,5S,6S)-4-propoxy-3,5-dimethoxy-6-methyl-tetrahydropyran-2-yl ester], the pest or weed control at 50 µg/cm2, 50 µg/cm2 in test [1] was above 50%. Besides, the pest or weed control at 12 µg/well, 12 µg/well in test [2] is below 50%.

With `CCO[C@@H]1[C@@H](OC)[C@H](C)O[C@@H](O/N=C/c2ccc(/C=C/c3ccc(C(O)(C(F)(F)F)C(F)(F)F)cc3)cc2)[C@@H]1OC` [Compound 11, 4-{(E)-2-[4-(2,2,2-Trifluoro-1-hydroxy-1-trifluoromethyl-ethyl)-phenyl]-vinyl}-benzaldehyde O-((2S,3R,4R,5S,6S)-4-ethoxy-3,5-dimethoxy-6-methyl-tetrahydropyran-2-yl)-oxime], the pest or weed control at 50 µg/cm2, 50 µg/cm2 in test [1] (setting [3]) was below 50%. Besides, in test [2] (setting [4]), the pest or weed control at 12 µg/well, 12 µg/well is above 50%.

For the molecule `CCO[C@@H]1[C@@H](OC)[C@H](C)O[C@@H](O/N=C/c2ccc(/C=C/c3cccc(C(F)(F)F)c3)cc2)[C@@H]1OC` [Compound 6, 4-[(E)-2-(3-Trifluoromethylphenyl)-vinyl]-benzaldehyde O-((2S,3R,4R,5S,6S)-4-ethoxy-3,5-dimethoxy-6-methyl-tetrahydropyran-2-yl)-oxime], the pest or weed control at 50 µg/cm2, 50 µg/cm2 in test [1] (setting [3]) was above 50%. Besides, in test [2] (setting [4]), the pest or weed control at 12 µg/well, 12 µg/well is above 50%.

Consider `CO[C@@H]1[C@@H](OC)[C@H](C)O[C@@H](O/N=C/c2ccc(C#Cc3ccc(C(F)(F)F)cc3)cc2)[C@@H]1OC` [Compound 15, 4-(4-Trifluoromethylphenylethynyl)-benzaldehyde O-((3R,4R,5S,6S)-3,4,5-trimethoxy-6-methyl-tetrahydropyran-2-yl)-oxime], for which the pest or weed control at 50 µg/cm2, 50 µg/cm2 in test [1] (setting [3]) was above 50%. Also, the pest or weed control at 12 µg/well, 12 µg/well in test [2] (setting [4]) was above 50%.

`CCOc1ccc(/C=C/c2ccc(NC(=O)O[C@@H]3O[C@@H](C)[C@H](OC)[C@@H](OC)[C@H]3OC)cc2)cc1` [Compound 17, {4-[(E)-2-(4-Ethoxyphenyl)-vinyl]-phenyl}-carbamic acid (2S,3R,4R,5S,6S)-3,4,5-tri-methoxy-6-methyl-tetrahydropyran-2-yl ester]: the pest or weed control at 50 µg/cm2, 50 µg/cm2 in test [1] is above 50%. The pest or weed control at 12 µg/well, 12 µg/well in test [2] was below 50%.

Regarding `CCO[C@@H]1[C@@H](OC)[C@H](C)O[C@@H](OC(=O)Nc2ccc(/N=N/c3ccc(OC(F)(F)C(F)(F)F)cc3)cc2)[C@@H]1OC` [Compound 22, [4-(4-Pentafluoroethyloxyphenylazo)-phenyl]-carbamic acid (2S,3R,4R,5S,6S)-4-ethoxy-3,5-dimethoxy-6-methyl-tetrahydropyran-2-yl ester], the pest or weed control at 50 µg/cm2, 50 µg/cm2 in test [1] is above 50%. Moreover, the pest or weed control at 12 µg/well, 12 µg/well in test [2] was above 50%.

Take `CCO[C@@H]1[C@@H](OC)[C@H](C)O[C@@H](O/N=C/c2ccc(/C=C/c3ccc(OC(F)(F)C(F)(F)F)cc3)cc2)[C@@H]1OC` [Compound 7, 4-[(E)-2-(4-Pentafluoroethyloxyphenyl)-vinyl]-benzaldehyde O-((2S,3R,4R,5S,6S)-4-ethoxy-3,5-dimethoxy-6-methyl-tetrahydropyran-2-yl)-oxime]: the pest or weed control at 50 µg/cm2, 50 µg/cm2 in test [1] (setting [3]) was above 50%. In test [2] (setting [4]), the pest or weed control at 12 µg/well, 12 µg/well is below 50%.

`CCO[C@@H]1[C@@H](OC)[C@H](C)O[C@@H](O/N=C/c2ccc(/C=C/c3ccc(C(F)(F)C(F)(F)OC(F)(F)C(F)(F)C(F)(F)F)cc3)cc2)[C@@H]1OC` [Compound 3]: the pest or weed control at 50 µg/cm2, 50 µg/cm2 in test [1] (setting [3]) was below 50%. The pest or weed control at 12 µg/well, 12 µg/well in test [2] (setting [4]) was below 50%.

As to `CCO[C@@H]1[C@@H](OC)[C@H](C)O[C@@H](OC(=O)Nc2ccc(/N=N/c3ccc(C(F)(F)F)cc3)cc2)[C@@H]1OC` [Compound 21, [4-(4-Trifluoromethylphenylazo)-phenyl]-carbamic acid (2S,3R,4R,5S,6S)-4-ethoxy-3,5-dimethoxy-6-methyl-tetrahydropyran-2-yl ester], the pest or weed control at 50 µg/cm2, 50 µg/cm2 in test [1] was below 50%. The pest or weed control at 12 µg/well, 12 µg/well in test [2] was above 50%.

For the molecule `CCO[C@@H]1[C@@H](OC)[C@H](C)O[C@@H](O/N=C/c2ccc(/C=C/c3ccc(C(C)=O)cc3)cc2)[C@@H]1OC` [Compound 4, 4-[(E)-2-(4-Acetyl-phenyl)-vinyl]-benzaldehyde O-((2S,3R,4R,5S,6S)-4-ethoxy-3,5-dimethoxy-6-methyl-tetrahydropyran-2-yl)-oxime], the pest or weed control at 50 µg/cm2, 50 µg/cm2 in test [1] (setting [3]) was below 50%. Moreover, the pest or weed control at 12 µg/well, 12 µg/well in test [2] (setting [4]) was below 50%.

Regarding `CCO[C@@H]1[C@@H](OC)[C@H](C)O[C@@H](O/N=C/c2ccc(C#Cc3ccc(C(F)(F)F)cc3)cc2)[C@@H]1OC` [Compound 14, 4-(4-Trifluoromethylphenylethynyl)-benzaldehyde O-((2S,3R,4R,5S,6S)-4-ethoxy-3,5-dimethoxy-6-methyl-tetrahydropyran-2-yl)-oxime], in test [1] (setting [3]), the pest or weed control at 50 µg/cm2, 50 µg/cm2 was above 50%. Also, the pest or weed control at 12 µg/well, 12 µg/well in test [2] (setting [4]) is above 50%.

Turning to `CO[C@@H]1[C@@H](OC)[C@H](C)O[C@@H](O/N=C/c2ccc(/C=C/c3cccc(C(F)(F)F)c3)cc2)[C@@H]1OC` [Compound 9, 4-[(E)-2-(3-Trifluoromethylphenyl)-vinyl]-benzaldehyde O-((2S,3R,4R,5S,6S)-3,4,5-trimethoxy-6-methyl-tetrahydropyran-2-yl)-oxime], the pest or weed control at 50 µg/cm2, 50 µg/cm2 in test [1] (setting [3]) is above 50%. For the same molecule, in test [2] (setting [4]), the pest or weed control at 12 µg/well, 12 µg/well was below 50%.

Take `CCO[C@@H]1[C@@H](OC)[C@H](C)O[C@@H](O/N=C/c2ccc(C#Cc3ccc(OC(F)(F)F)cc3)cc2)[C@@H]1OC` [Compound 13, 4-(4-trifluoromethoxyphenylethynyl)-benzaldehyde O-((2S,3R,4R,5S,6S)-4-ethoxy-3,5-dimethoxy-6-methyl-tetrahydropyran-2-yl)-oxime]: in test [1] (setting [3]), the pest or weed control at 50 µg/cm2, 50 µg/cm2 is above 50%. Further, the pest or weed control at 12 µg/well, 12 µg/well in test [2] (setting [4]) was above 50%.

As for `CCCO[C@@H]1[C@@H](OC)[C@H](C)O[C@@H](O/N=C/c2ccc(/C=C/c3ccc(C(F)(F)F)cc3)cc2)[C@@H]1OC` [Compound 10, 4-[(E)-2-(4-Trifluoromethylphenyl)-vinyl]-benzaldehyde O-((2S,3R,4R,5S,6S)-4-propoxy-3,5-dimethoxy-6-methyl-tetrahydropyran-2-yl)-oxime], the pest or weed control at 50 µg/cm2, 50 µg/cm2 in test [1] (setting [3]) is above 50%. In addition, the pest or weed control at 12 µg/well, 12 µg/well in test [2] (setting [4]) was above 50%.

Consider `CCO[C@@H]1[C@@H](OC)[C@H](C)O[C@@H](OC(=O)Nc2ccc(/C=C/c3ccc(C(F)(F)F)cc3)cc2)[C@@H]1OC` [Compound 16, {4-[(E)-2-(4-trifluoromethylphenyl)-vinyl]-phenyl}-carbamic acid (2S,3R,4R,5S,6S)-4-ethoxy-3,5-dimethoxy-6-methyl-tetrahydropyran-2-yl ester], for which, in test [1], the pest or weed control at 50 µg/cm2, 50 µg/cm2 was above 50%. Besides, the pest or weed control at 12 µg/well, 12 µg/well in test [2] was above 50%.

`CO[C@@H]1[C@@H](OC)[C@H](C)O[C@@H](O/N=C/c2ccc(/C=C/c3ccc(OC(F)(F)F)cc3)cc2)[C@@H]1OC` [Compound 8]: the pest or weed control at 50 µg/cm2, 50 µg/cm2 in test [1] (setting [3]) is above 50%. For the same molecule, in test [2] (setting [4]), the pest or weed control at 12 µg/well, 12 µg/well was above 50%.

As to `CCO[C@@H]1[C@@H](OC)[C@H](C)O[C@@H](OC(=O)Nc2ccc(/N=N/c3cccc(OC(F)(F)F)c3)cc2)[C@@H]1OC` [Compound 19, [4-(3-trifluoromethoxyphenylazo)-phenyl]-carbamic acid (2S,3R,4R,5S,6S)-3,5-dimethoxy-4-ethoxy-6-methyl-tetrahydropyran-2-yl ester], in test [1], the pest or weed control at 50 µg/cm2, 50 µg/cm2 was above 50%. The pest or weed control at 12 µg/well, 12 µg/well in test [2] is above 50%.
